We go through three compounds from US7807712B2, “Oxy substituted chalcones as antihyperglycemic and antidyslipidemic agents” (priority 2004, dated 2010).

The structures appear in SMILES notation.

One assay concerns db/db mice. Briefly: Antidyslipidemic activity in db/db mice. In kind it is in vivo, mouse (C57BL/KsBom-db). As to conditions: for % Fall in lipid levels HDL: serum HDL-cholesterol; for % Fall in lipid levels Chol.: serum cholesterol; for % Fall in lipid levels TG: serum triglycerides. The source says: The db/db mouse is a well-characterized model of […]. The background for the db/db mouse is the C57BL/Ks strain. The major deficiency of the C57BL/KsBom-db mouse (db/db) is lack of a functional leptin receptor. This leads to defective leptin signaling and a complete lack of feedback from leptin. […] The db/db mouse develops NIDDM from around week 10. The disease is stable until week 20, where destruction of pancreatic β-cells can be recognized clinically as decreasing levels of plasma insulin and very severe hyperglycemia. The male mice are more diabetic than female and will normally die earlier. The advantage of using male mice for experimental purposes is that the fluctuations in plasma parameters are less than in the females where the estrogen cycle affects the clinical diabetes mellitus. The optimal age of db/db mice used for experiments will be from week 12 to 18 when they have developed NIDDM with diabetic dyslipidemia but still have functional β-cells in the pancreas. C57BL/KsBom-db mice 12-18 weeks, 40-50 g bred in the animal house of CDRI, Lucknow. 10 male mice were used in the experiments. The mice were housed in groups of 5 individuals in a room controlled for temperature (23±2° C.) and 12/12 hours light/dark cycle (lights on at 6.00 am). Body weight was measured daily from day 1 to day 10. All animals had free access to fresh water and to normal chow except on the days of the postprandial protocol day 6 and during the overnight fast before the OGTT on day 10. Blood glucose was checked every morning up till day 5. On day 6 postprandial protocol was employed, in this method blood glucose was checked at −0.30 min and 0 h. Test compounds were given to the treatment group whereas control group received only gum acacia (1.0%); the blood glucose was again checked at 1, 2, 3, 4 and 6 h post test compound treatment. Finally on day 10 an oral glucose tolerance test (OGTT) was performed after an overnight fasting. Blood glucose was measured at −0.30 min and test drugs were fed, blood glucose was again measured at 0.0 min post treatment, at this juncture glucose solution was given at a dose of 3 gm/kg to all the groups including control group; the profile of blood glucose was checked at 30 min, 60 min, 90 min and 120 min post glucose administration. Quantitative glucose tolerance of each animal was calculated by Area Under Curve (AUC) method (Prism Software). Comparing the AUC of experimental and control groups determined the percentage antihyperglycemic activity. Statistical comparison was made by Dunnett's test.
Cholesterol and triglycerides were estimated using the same procedures as given above.
HDL-Cholesterol was estimated using the kit provided by the Roche Diagnostics. Cholestest N HDL is a liquid reagent that directly measures the HDL-cholesterol concentration in serum by a new method that is based on the selective solubilising effect of proprietary detergent to the different lipoproteins. In the assay system, only HDL is solubilised by a special detergent; other lipoproteins are not disturbed. After HDL is selectively disrupted, HDL cholesterol is measured enzymatically (Gordon, T.; Casstelli, W. P.; Hjortland, M. C.; Kannel, W. B.; Dawber, T. R. High density lipoproteins as a protective factor against coronary heart disease, Am. J. Med. 1977, 62, 707-714.).

In assay [1] the test system is streptozotocin-induced diabetic rats. Nature of the assay: Sucrose-challenged streptozotocin-induced diabetic rats (STZ-S), antihyperglycemic activity. It counts as in vivo, rat (Sprague Dawley). As to conditions: for activity in STZ model: summary statement. As for the experimental part:
Male albino rats of Sprague Dawley strain of body weight […] were selected for this study. Streptozotocin (Sigma, USA) was dissolved in 100 mM citrate buffer pH 4.5 and calculated amount of the fresh solution was injected to overnight fasted rats (45 mg/kg) intraperitoneally. Blood glucose level was checked 48 h later by glucostrips and animals showing blood glucose values between 144 to 270 mg/dl (8 to 15 mM) were included in the experiment and termed diabetic. The diabetic animals were divided into groups consisting of five to six animals in each group. Animals of experimental groups were administered suspension of the desired test samples orally (made in 1.0% gum acacia) at a dose of 100-mg/kg-body weight. Animals of control group were given an equal amount of 1.0% gum acacia. A sucrose load of 2.5-g/kg body weight was given after 30 minutes of compound administration. After 30 minutes of post sucrose load blood glucose level was again checked by glucostrips at 30, 60, 90, 120, 180, 240, 300 min and at 24 h, respectively. Animals not found diabetic after 24 hours post treatment of the test sample were not considered and omitted from the calculations and termed as non-responders. […] Food but not water was withheld from the cages during the experimentation. Comparing the AUC of experimental and control groups determined the percent antihyperglycemic activity. Statistical comparison between groups was made by Student's ‘t’ test.

Setting [2] is: 100 mg/kg oral, sucrose load 2.5 g/kg, AUC vs control.

As to `COc1ccc(/C=C/C(=O)c2ccc(OCC(O)CN3CCN(c4ccccc4)CC3)cc2)cc1OC` (stereo not drawn) [Compound 18, 3,4-Dimethoxy-4′-[2-hydroxy-3-(4-phenylpiperazin-1-yl)-propoxy]-chalcone], in the assay on db/db mice, the “% Fall in lipid levels HDL” value came out at 11.8%, the “% Fall in lipid levels Chol.” value stood at 1.36% and the “% Fall in lipid levels TG” value is reported as “+5.20%”. Besides, in assay [1] (setting [2]), the “% Fall in blood glucose levels STZ-S 24 h” value is reported as 20.3%. For the same compound, the “activity in STZ model” value in assay [1] was “significant results”.

Consider `CC(C)(C)NCC(O)COc1ccc(C(=O)/C=C/c2ccc3c(c2)OCO3)cc1` (stereo not drawn) [Compound 34, 4′-[^3-tert-Butylamino-2-hydroxy-propoxy]-3,4-methylenedioxy-chalcone], for which, in the assay on db/db mice, the “% Fall in lipid levels HDL” value is recorded as “+1.76%”, the “% Fall in lipid levels Chol.” value came to 40.3% and the “% Fall in lipid levels TG” value was “+7.44%”. For the same compound, the “% Fall in blood glucose levels STZ-S 24 h” value in assay [1] (setting [2]) is listed as 23.0%. For the same compound, the “activity in STZ model” value in assay [1] is “significant results”.

Take `O=C1NC(=O)/C(=C\c2ccc(OCCCCCOc3cccc(C(=O)/C=C/c4ccc5c(c4)OCO5)c3)cc2)S1` [Compound 46, 3,4-Methylenedioxy-3′-{5-[4-(thiazolidin-2,4-dione-5-ylidinemethyl)-phenoxy]-pentyloxy}-chalcone]: in the assay on db/db mice, the “% Fall in lipid levels HDL” value is 21.4%, the “% Fall in lipid levels Chol.” value is 18.9% and the “% Fall in lipid levels TG” value stood at 6.76%. Also, the “% Fall in blood glucose levels STZ-S 5 h” value in assay [1] (100 mg/kg oral, sucrose load 2.5 g/kg, AUC vs control, 5 h) is 11.8%. For the same compound, in assay [1] (setting [2]), the “% Fall in blood glucose levels STZ-S 24 h” value came to 7.18%.
